Measurements taken from patent US5444042A, “Method of treatment of neurodegeneration with calpain inhibitors” (Cortex Pharmaceuticals, priority 1994, dated 1995).
Entries after “also recorded” stand apart in the source; their conditions may differ. Where a SMILES comes first, the peptide text is derived from it. The star is where a group is joined. Boc = CC(C)(C)OC(=O)*; CH2Cl = ClC*

Tests used:
[1] = molecular target: T1, Calpain I from human erythrocytes (Homo sapiens, UniProt P07384); assay: Calpain I inhibition, Suc-Leu-Tyr-AMC (Table PKC1); type: biochemical; conditions: 20 mM Hepes, 10 mM CaCl2, 10 mM β-mercaptoethanol, pH 7.2; read-out: Ki CI (Calpain I)
T1 construct: Calpain I from human erythrocytes and calpain II from rabbit were assayed using Suc-Leu-Tyr-AMC; from tissue; host or cells: human erythrocytes
T1 sequence (P07384 1-714): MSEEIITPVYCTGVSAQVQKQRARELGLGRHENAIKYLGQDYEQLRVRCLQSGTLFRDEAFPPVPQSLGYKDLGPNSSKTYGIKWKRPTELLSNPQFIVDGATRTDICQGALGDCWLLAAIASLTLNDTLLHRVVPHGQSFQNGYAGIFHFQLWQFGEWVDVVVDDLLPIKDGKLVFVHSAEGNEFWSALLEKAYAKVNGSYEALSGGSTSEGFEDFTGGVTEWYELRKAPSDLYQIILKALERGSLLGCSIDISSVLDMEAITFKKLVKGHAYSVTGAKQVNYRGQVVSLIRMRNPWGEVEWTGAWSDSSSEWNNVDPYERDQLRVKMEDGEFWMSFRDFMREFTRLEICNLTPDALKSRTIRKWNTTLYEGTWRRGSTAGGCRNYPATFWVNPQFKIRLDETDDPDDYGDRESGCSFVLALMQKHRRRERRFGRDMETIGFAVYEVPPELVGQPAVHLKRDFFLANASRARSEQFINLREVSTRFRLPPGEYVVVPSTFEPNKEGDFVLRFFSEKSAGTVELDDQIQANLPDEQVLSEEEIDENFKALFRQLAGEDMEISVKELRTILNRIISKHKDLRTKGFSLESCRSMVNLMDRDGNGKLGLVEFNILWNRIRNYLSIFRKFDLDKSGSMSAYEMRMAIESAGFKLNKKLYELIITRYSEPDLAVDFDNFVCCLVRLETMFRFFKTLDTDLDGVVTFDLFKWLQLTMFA
T1 sequence (P04632 1-268 partner): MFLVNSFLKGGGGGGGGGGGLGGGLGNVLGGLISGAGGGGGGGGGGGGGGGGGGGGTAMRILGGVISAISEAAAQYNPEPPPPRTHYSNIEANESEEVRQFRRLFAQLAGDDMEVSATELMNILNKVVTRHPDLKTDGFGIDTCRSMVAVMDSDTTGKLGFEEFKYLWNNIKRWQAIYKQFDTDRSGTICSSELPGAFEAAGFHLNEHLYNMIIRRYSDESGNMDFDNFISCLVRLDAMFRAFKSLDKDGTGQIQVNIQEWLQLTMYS
Protocol: Our discovery of Peptide Keto-Compounds effective as Calpain Inhibitors was made through assay of the Peptide Keto-Compounds as reversible inhibitors. Various concentrations of inhibitors in dimethylsulfoxide (DMSO) were added to the assay mixture, which contained buffer and substrate. The reaction was started by the addition of the enzyme and the hydrolysis rates were followed spectrophotometrically or fluorimetrically. 88 mM KH2 PO4, 12 mM Na2 HPO4, 1.33 mM EDTA, 2.7 mM cysteine, pH 6.0 was used as a buffer for cathepsin B; and 20 mM Hepes, 10 mM CaCl2, 10 mM β-mercaptoethanol, pH 7.2 buffer was utilized for calpain I and calpain II.
All peptide thioester hydrolysis rates were measured with assay mixtures containing 4,4'-dithiodipyridine [e324=19800 M-1 cm-1; Grasetti & Murray, Arch. Biochem. Biophys. 119, pp 41-49 (1967)]. Papain was assayed with Bz-Arg-AMC or Bz-Arg-NA [Kanaoka et al., Chem. Pharm. Bull. 25, 3126-3128 (1977)], and the AMC (7-amino-4-methylcoumarin) release was followed fluorimetrically (excitation at 380 nm, and emission at 460 nm). Cathepsin B was assayed with Z-Arg-Arg-AFC [Barrett and Kirschke, Methods Enzymol. 80, 535-561 (1981)], and the AFC (7-amino-4-trifluoromethylcoumarin) release was followed fluorimetrically (excitation at 400 nm, and emission at 505 nm). Calpain I from human erythrocytes and calpain II from rabbit were assayed using Suc-Leu-Tyr-AMC [Sasaki et al., J. Biol. Chem. 259, 12489-12494 (1984), hereby incorporated by reference], and the AMC (7-amino-4-methylcoumarin) release was followed fluorimetrically (excitation at 380 nm, and emission at 460 nm). Enzymatic hydrolysis rates were measured at various substrate and inhibitor concentrations, and Ki values were determined by Dixon plot.

[2] = molecular target: T1, Calpain I from human erythrocytes; assay: Calpain I Ki (Table 1B(i)); type: biochemical; conditions: Suc-Leu-Tyr-amidomethylcoumarin, HEPES pH 7.2
Protocol: The Peptide Keto-Compounds are reversible inhibitors of Calpains and other thiol proteases. […] Cathepsin B from bovine spleen was assayed using Z-Lys-4-nitrophenylphosphate as substrate.
The Ki value for the inhibition of Calpains and cathepsin B by several Peptide Keto-Compounds are shown in μM (micromolar). The values for leupeptin, which is commercially available from Calbiochem of La Jolla, Calif., are shown for comparison.

PP Elastase = PP Elastase (Sus scrofa, UniProt P00772); assay: PP Elastase KI (Table 1B(ii)); type: biochemical
Chain of PP Elastase (P00772 27-266): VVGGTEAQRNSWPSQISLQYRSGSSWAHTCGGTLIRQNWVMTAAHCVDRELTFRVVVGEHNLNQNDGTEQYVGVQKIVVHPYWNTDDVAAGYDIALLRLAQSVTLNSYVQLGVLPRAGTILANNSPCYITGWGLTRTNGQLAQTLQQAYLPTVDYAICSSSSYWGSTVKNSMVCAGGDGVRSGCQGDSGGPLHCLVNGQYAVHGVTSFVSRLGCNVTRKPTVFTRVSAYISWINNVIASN
Source text: (§1) We tested the ability of an additional group of Peptide Keto-Compounds to inhibit several proteases in order to evaluate their specificity for Calpain.

Cathepsin B = Cathepsin B (Bos taurus, UniProt P07688); assay: Cathepsin B KI (Table 1B(ii)); type: biochemical; conditions: read-out: KI CathB
Source text: as §1

hippocampal slices = assay: Hippocampal slice survival after 10 min anoxia (Example 7A); type: cell-based, rat
Protocol: Hippocampal slices (400 um) were prepared from Sprague Dawley rats (6 to 7 weeks) and maintained in an interface chamber at 35° C. using conventional techniques, i.e., the lower surface of the slice received a constant perfusion (0.5 ml/min) of ACSF, while the upper surface was exposed to a moist atmosphere of O2 :CO2 (95%:5%) exchanged at a rate of 2 L/min. The ACSF medium contains (in mM): NaCl (124), KCl (3), KHPO4 (2.5), CaCl (3.4), NaHCO3 (26) and D-Glucose (10). Field excitatory post-synaptic responses were recorded from stratum radiatum of CAlb in response to stimulation of Schaffer-commissural fibers in CAla or CAlc. The depth of the recording electrode was optimized and evoked responses were collected at a rate of one evoked response every 30 seconds.
For the initial screening procedure, 14 to 16 slices are harvested from the hippocampus of a single rat and placed in a common ACSF bath. Each slice is tested in sequence to determine the magnitude of its pre-anoxic evoked response. Five stimulation pulses (each 0.1 ms (millisecond) in duration) were presented over a 15 second interval. The largest evoked response was noted and recorded for each slice.
After the one hour drug incubation period, the oxygen-enriched atmosphere of the chamber was made anoxic by substituting nitrogen for oxygen (N2 =95%; CO^2 =5%). The slices were retained in this anoxic environment for 10 minutes, following which the oxygen-enriched atmosphere (O^2 =95%; CO2 =5%) was reestablished.
The slices were given the opportunity to recover for 30 minutes following reoxygenation whereupon each was stimulated and the maximum evoked potential determined, as described above during the pre-anoxia period. Those slices which, after anoxia, produced a maximum evoked potential of greater than 50% of that observed prior to anoxia were defined as surviving slices.

Compound	Ki [1] [µM]	Ki [2] [µM]	Ki (PP Elastase) [µM]	Ki (Cathepsin B) [µM]	also measured
CCC(NC(=O)[C@@H]1CCCN1C(=O)[C@H](C)NC(=O)[C@H](C)NC(=O)CCC(=O)OC)C(=O)C(=O)OC (mixture of isomers) [MeO-Suc-Ala-Ala-Pro-Abu-COOMe, MeO-Suc-Ala-Ala-Pro-DL-Abu-CO2 Me]	100	–	–	–	–
CCOC(=O)C(=O)C(CC)NC(=O)[C@H](C)NC(=O)[C@H](C)NC(=O)OCc1ccccc1 (mixture of isomers) [Z-Ala-Ala-DL-Abu-COOEt, Z-Ala-Ala-DL-Abu-CO2 Et]	50	50	–	–	–
CCOC(=O)C(=O)[C@H](CC)NC(=O)[C@H](CC(C)C)NC(=O)OCc1ccccc1 (racemic) [Z-Leu-Abu-COOEt, Z-Leu-DL-Abu-COOEt]	0.04	0.04	> 100	30	protection of slices from anoxia (FIG. 3) (hippocampal slices; 10 minutes anoxic atmosphere, listed as CX218): protected from the effects of anoxia; also recorded: significantly more effective; Survival of slices after ten minutes anoxia (hippocampal slices; Dose 100 μM, incubation 1 hour): 70%
CCCC(NC(=O)[C@H](CC(C)C)NC(=O)OCc1ccccc1)C(=O)C(=O)OCC (mixture of isomers) [Z-Leu-Nva-COOEt, Z-Leu-DL-Nva-COOEt]	–	–	2.3	25	–
CC(C)CC(NC(=O)CNC(=O)OC(C)(C)C)C(=O)NC(Cc1ccccc1)C(=O)CCl (stereo not drawn) [Boc-Gly-Leu-Phe-CH2 Cl] (Boc-Gly-Leu-Phe-CH2Cl; configuration not given here)	–	–	–	–	Survival of slices after ten minutes anoxia (hippocampal slices; Dose 50 μM, incubation 1 hour): 50%
CC(=O)N[C@@H](CC(C)C)C(=O)N[C@@H](CC(C)C)C(=O)N[C@H](C=O)CCCNC(=N)N [Leupeptin, Ac-Leu-Leu-Arg-H, reference compound]	–	0.32	–	–	Survival of slices after ten minutes anoxia (hippocampal slices; Dose 1000 μM, incubation 3 hours): 50%
N=C(N)SCCCOc1oc(=O)c2cc(N)ccc2c1Cl [NH2 -CiTPrOIC (ACITIC), 7-amino-4-chloro-3-(3-isothiureidopropoxy)isocoumarin]	–	–	–	–	Survival of slices after ten minutes anoxia (hippocampal slices; Dose 20 μM, incubation 1 hour): 50%
CCCCC(NC(=O)C(CC(C)C)NC(=O)OCc1ccccc1)C(=O)C(=O)OCC (stereo not drawn) [Z-Leu-Nle-COOEt, Z-Leu-NLeu-CO2 Et]	0.12	–	2.2	20	–
CCOC(=O)C(=O)C(Cc1ccccc1)NC(=O)C(CC(C)C)NC(=O)OCc1ccccc1 (stereo not drawn) [Z-Leu-Phe-COOEt]	0.23	–	> 100	340	–
